In brackets after ≈: the same amount, converted by molar mass. Like-named read-outs stand apart in the source and are kept apart here.
Assays:
[1] = tested on: Acinetobacter spp. H064200250; assay: MIC determination for Acinetobacter strains (Example 3); type: cell-based, Acinetobacter sp.; details: LEV R, CIP R, MRP R, IMP I
A. baumannii A329 = assay: as above; type: cell-based; details: LEV R, CIP R, MRP R, IMP R, AMK R, TET R
A. baumannii A 401 = assay: as above; type: cell-based; details: A401, LEV R, CIP R, AMK R, TET R
A. baumannii A472 = assay: as above; type: cell-based; details: LEV R, CIP R, MRP I, IMP I, AMK R, TET R
[2] = tested on: resistant strains of A. baumannii and one strain of Acinetobacter sp.; assay: MIC without and with sub-inhibitory polymyxin B, whole panel / MIC ranges (Example 4; also strains not listed separately); type: cell-based; details: for MIC +0.06 μg/ml PB: +0.06 μg/ml polymyxin B; for MIC without PB/MIC + PB: ratio; for MIC +[…] PB: +[…] polymyxin B; for MIC: Acinetobacter baumannii
A. baumannii ATCC 19606 = assay: MIC without and with sub-inhibitory polymyxin B (Example 4); type: cell-based, Acinetobacter baumannii; details: for MIC +0.06 μg/ml PB / MIC without PB/MIC + PB: A. baumannii ATCC 19606; for MIC +0.06 μg/ml PB: +0.06 μg/ml polymyxin B; for MIC without PB/MIC + PB: ratio, PB 0.06 μg/ml; for MIC: Acinetobacter baumannii, ATCC19606, A. baumannii ATCC 19606, without polymyxin B
A. baumannii J2 = assay: as above; type: cell-based, Acinetobacter baumannii; details: for MIC +[…] PB / MIC without PB/MIC + PB: A. baumannii J2; for MIC +[…] PB: +[…] polymyxin B; for MIC without PB/MIC + PB: ratio; for MIC: Acinetobacter baumannii, J2, A. baumannii J2, without polymyxin B
[3] = tested on: Acinetobacter sp. (H064200250); assay: as above; type: cell-based; details: for MIC +[…] PB: +[…] polymyxin B; for MIC without PB/MIC + PB: ratio; for MIC: Acinetobacter, without polymyxin B, read-out: MIC without PB
A. baumannii A401 = assay: as above; type: cell-based, Acinetobacter baumannii; details: A baumannii A 401; for MIC +0.06 μg/ml PB: +0.06 μg/ml polymyxin B
[4] = 1st experiment, read-out: MIC without PB
[5] = 2nd experiment, visual reading, read-out: MIC without PB
[6] = Acinetobacter spp. H064200250 (OXA51), 2nd experiment, visual reading
[7] = Acinetobacter spp. H064200250, 1st experiment

- MIC [1]: 16 µg/mL (≈ 53.4 µM)
- MIC (A. baumannii A329): 128 µg/mL (≈ 428 µM)
- MIC (A. baumannii A 401): 32 µg/mL (≈ 107 µM)
- MIC (A. baumannii A472): 16 µg/mL (≈ 53.4 µM)
- Range ratios MIC without PB/MIC with PB 01-10-2008 n = 8 ([2]; 1st experiment, 8 strains): 1-64
- Range ratios MIC without PB/MIC with PB 14-10-2008 n = 11 ([2]; 2nd experiment, 11 strains): 1-256
- MIC +0.06 μg/ml PB ([2]; A. baumannii A14, 1st experiment): 1 µg/mL
- MIC +0.06 μg/ml PB ([2]; A. baumannii A14, 2nd experiment, visual reading): 1 µg/mL
- MIC without PB/MIC + PB ([2]; A. baumannii A14, PB 0.06 μg/ml, 1st experiment): 1
- MIC without PB/MIC + PB ([2]; A. baumannii A14, PB 0.06 μg/ml, 2nd experiment): 1
- MIC +[…] PB ([2]; A. baumannii NCTC 13301, 1st experiment): 16 µg/mL (≈ 53.4 µM)
- MIC +[…] PB ([2]; A. baumannii NCTC 13301, 2nd experiment, visual reading): 1 µg/mL (≈ 3.34 µM)
- MIC without PB/MIC + PB ([2]; A. baumannii NCTC 13301, PB […], 1st experiment): 8
- MIC without PB/MIC + PB ([2]; A. baumannii NCTC 13301, PB […], 2nd experiment): 128
- MIC ([2]; A. baumannii A14, without polymyxin B, 1st experiment, read-out: MIC without PB): 1 µg/mL (≈ 3.34 µM)
- MIC ([2]; A. baumannii A14, without polymyxin B, 2nd experiment, visual reading, read-out: MIC without PB): 1 µg/mL (≈ 3.34 µM)
- MIC ([2]; NCTC13301, A. baumannii NCTC 13301, without polymyxin B, 1st experiment, read-out: MIC without PB): 128 µg/mL (≈ 428 µM)
- MIC ([2]; NCTC13301, A. baumannii NCTC 13301, without polymyxin B, 2nd experiment, visual reading, read-out: MIC without PB): 128 µg/mL (≈ 428 µM)
- MIC ([2]; read-out: MIC range without PB 01-10-2008 n = 8, without polymyxin B, 1st experiment, 8 strains): 1 to 128 µg/mL (≈ 3.34 to 428 µM)
- MIC range with PB ([…] MIC) 01-10-2008 n = 8 ([2]; with polymyxin B […] MIC, 1st experiment, 8 strains): <0.125-16 μg/ml
- MIC +0.06 μg/ml PB (A. baumannii ATCC 19606; 1st experiment): 1 µg/mL
- MIC +0.06 μg/ml PB (A. baumannii ATCC 19606; 2nd experiment, visual reading): 1 µg/mL
- MIC without PB/MIC + PB (A. baumannii ATCC 19606; 1st experiment): 2
- MIC without PB/MIC + PB (A. baumannii ATCC 19606; 2nd experiment): 1
- MIC (A. baumannii ATCC 19606; [4]): 2 µg/mL (≈ 6.68 µM)
- MIC (A. baumannii ATCC 19606; 2nd experiment, second reading marked *, mark not explained, read-out: MIC without PB, value in parentheses marked *): 4 µg/mL (≈ 13.4 µM)
- MIC (A. baumannii ATCC 19606; [5]): 1 µg/mL (≈ 3.34 µM)
- MIC +[…] PB (A. baumannii J2; 1st experiment): ≤0.125 µg/mL
- MIC +[…] PB (A. baumannii J2; 2nd experiment, visual reading): ≤0.125 µg/mL
- MIC without PB/MIC + PB (A. baumannii J2; 1st experiment): ≥32
- MIC without PB/MIC + PB (A. baumannii J2; 2nd experiment): ≥64
- MIC (A. baumannii J2; [4]): 4 µg/mL (≈ 13.4 µM)
- MIC (A. baumannii J2; 2nd experiment, MIC read with alamar blue, read-out: MIC without PB, read with alamar blue): 4 µg/mL (≈ 13.4 µM)
- MIC (A. baumannii J2; [5]): 8 µg/mL (≈ 26.7 µM)
- MIC +[…] PB [3, 6]: 0.5 µg/mL (≈ 1.67 µM)
- MIC without PB/MIC + PB ([3]; Acinetobacter spp. H064200250 (OXA51), 2nd experiment): 16
- MIC +[…] PB [3, 7]: 0.5 µg/mL (≈ 1.67 µM)
- MIC without PB/MIC + PB [3, 7]: 32
- MIC [3, 6]: 8 µg/mL (≈ 26.7 µM)
- MIC [3, 7]: 16 µg/mL (≈ 53.4 µM)
- MIC +0.06 μg/ml PB (A. baumannii A401; 1st experiment): 8 µg/mL
- MIC +0.06 μg/ml PB (A. baumannii A401; 2nd experiment, visual reading): 4 µg/mL
- MIC ratio without/with polymyxin B (A. baumannii A401; ratio MIC without PB to MIC + PB, PB 0.06 μg/ml, 2nd experiment): 8 µg/mL
Compound: C[C@@H](O)[C@H]1C(=O)N2C(C(=O)O)=C(SCCN=CN)C[C@H]12 [Imipenem, reference compound]
